We go through 6 molecules from patent publication US7572783B2 (Amgen Inc., priority 2004, dated 2009).

The target in the test is T1, human GHSR1a (Homo sapiens, UniProt Q92847).
T1 construct: expressed in transfected cells
T1 sequence (Q92847 whole entry): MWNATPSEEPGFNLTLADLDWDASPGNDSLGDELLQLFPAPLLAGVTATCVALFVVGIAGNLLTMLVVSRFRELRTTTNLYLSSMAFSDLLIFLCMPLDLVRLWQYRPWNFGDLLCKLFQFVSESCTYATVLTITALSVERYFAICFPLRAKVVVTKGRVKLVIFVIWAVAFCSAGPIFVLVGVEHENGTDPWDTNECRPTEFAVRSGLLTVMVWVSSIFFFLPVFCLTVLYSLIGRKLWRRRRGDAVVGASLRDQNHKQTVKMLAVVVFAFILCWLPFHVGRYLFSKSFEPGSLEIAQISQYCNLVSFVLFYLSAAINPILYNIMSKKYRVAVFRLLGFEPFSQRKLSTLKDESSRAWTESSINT
The test is described as follows: Aequorin luminescent functional assay (intracellular Ca2+, ghrelin-stimulated). To be noted: stable cell line expressing human GHSR1a and apoaequorin; final ghrelin 3x EC50 (20 nM); read-out: Class (based on IC50 values). The procedure:
IC50 values of inventive compounds may be assessed as follows. An aequorin (Euroscreen) luminescent assay (Stabels et al., 1997) measuring the intracellular Ca^2+ concentration was used as the functional assay to evaluate the potency of the compounds. A stable cell line, expressing human GHSR1a and apoaequorin in mitochondria was used in the aequorin assay. 5×10^6 cells per mL were incubated at room temperature in HyClone Media (Perbio) supplemented with 2 μM coelenterazine (Molecular Probes). After 2 hrs cells were diluted to 1×10^6 cells per ml in HyClone Medium.
50 μL of the cell suspension was added to each well of a 96-well plate containing 50 μL of compound, diluted in HyClone Medium. The cell suspension/compound mixture was incubated for 30 seconds before 50 μL of a 9× EC50 concentrations of a human ghrelin solution, in HyClone Medium, was injected. The final Ghrelin concentration was 3× EC50 (20 nM). Aequorin luminescence elicited by intracellular Ca^2+ in the cells was recorded for a total of 60 seconds with a microplate luminometer (Microlumate, Berthold). IC50 of the compounds in this assay was calculated with Prism 4.
In the case of `CC(C)C(C(=O)N1CCC(NCc2ccc(F)cc2)CC1)N1CC=Cc2ccc(Oc3ccc(F)cc3F)cc2C1=O` (stereo not drawn) [8-(2,4-difluoro-phenoxy)-2-{1-[4-(4-fluoro-benzylamino)-piperidine-1-carbonyl]-2-methyl-propyl}-2,3-dihydro-benzo[c]azepin-1-one], the half-inhibitory concentration (IC50) (commonly the point on the concentration scale where inhibition reaches its midpoint) was ≤ 10 nM.
As for `O=C1c2cc(Oc3ccc(F)cc3F)ccc2CCN1C(c1cccc(CCNCC2CC2)c1)C1CC1` (stereo not drawn) [2-(cyclopropyl-{3-[2-(cyclopropylmethyl-amino)-ethyl]-phenyl}-methyl)-7-(2,4-difluoro-phenoxy)-3,4-dihydro-2H-isoquinolin-1-one], the half-inhibitory concentration (IC50) was ≤ 10 nM.
For `CCc1ccccc1Oc1ccc2c(c1)C(=O)N(C(C(=O)N1CCC(NCc3ccc(F)cc3)CC1)C(C)C)CC(=O)N2` (stereo not drawn) [7-(2-ethyl-phenoxy)-4-{1-[4-(4-fluoro-benzylamino)-piperidine-1-carbonyl]-2-methyl-propyl}-3,4-dihydro-1H-benzo[e][1,4]diazepine-2,5-dione], the IC50 lay within 10 to 50 nM.
Regarding `Cc1cccc(C)c1Oc1ccc2c(c1)C(=O)N([C@@H](C(=O)N1CCC(NC(C)c3ccccc3)CC1)C(C)C)CC(=O)N2` (stereo partly drawn), the IC50 is ≤ 10 nM.
In the case of `Cc1cccc(C)c1Oc1ccc2c(c1)C(=O)N(C(C(=O)N1CCC(NCCc3ccc(F)cc3)CC1)C(C)C)CC(=O)N2` (stereo not drawn) [7-(2,6-dimethyl-phenoxy)-4-(1-{4-[2-(4-fluoro-phenyl)-ethylamino]-piperidine-1-carbonyl}-2-methyl-propyl)-3,4-dihydro-1H-benzo[e][1,4]diazepine-2,5-dione], the concentration for half-maximal inhibition (IC50) was ≤ 10 nM.
With `CC(C)C(CC1CCC(NC2CC2)CC1)N1CCCc2ccc(Oc3ccc(F)cc3F)cc2C1=O` (stereo not drawn) [2-[1-(4-Cyclopropylamino-cyclohexylmethyl)-2-methyl-propyl]-8-(2,4-difluoro-phenoxy)-2,3,4,5-tetrahydro-benzo[c]azepin-1-one], the concentration for half-maximal inhibition (IC50) was ≤ 10 nM.
